Measurements as given in patent US20260306526A1, “COMBINATION THERAPY FOR BACTERIAL INFECTIONS COMPRISING ZINC-CHELATOR, BETA-LACTAM ANTIBIOTIC AND SERINE BETA-LACTAMASE INHIBITOR” (priority 2023, published 2026).
Where “and” joins values, the source holds several entries; their conditions need not be identical. Identical values can stand only once.

Columns and labels:
[1] = tested on: Pseudomonas aeruginosa ST111; experiment: MIC determination, fixed concentration of sBLI (Examples 27-30); assay type: cell-based; settings: VIM-2, OXA-395, PDC-3, caMHB, 29.4 μM Zn2+
Method: Antimicrobial susceptibility testing (AST) by broth microdilution (MIC determination) was performed according to The European Committee on Antimicrobial Susceptibility Testing (EUCAST) guidelines (see Reading guide for broth microdilution Version 5.0, 2024: https://www.eucast.org).
For combinations containing meropenem as the antibiotic, Sensititre™ FINMER meropenem 64-0.03 μg/mL plates (Thermo Fischer Diagnostics custom plates; YFINMER) were used in most of the experiments. For other antibiotics (and for meropenem whenever a higher start concentration than 64 μg/mL was needed) sterile clear round bottom polystyrene (non-treated) 96-well microplates (Corning 3788) were used for making serial two-fold dilutions of the antibiotic in cation-adjusted Mueller Hinton II broth (caMHB; Thermo Scientific, T3462, containing 29.4 μM Zn^2+ or MILLIPORE, 90922-500G, containing 5.6 μM Zn^2+), across the columns of the microtiter plate (128-0.06 μg/mL; columns 1-12).
The checkerboard plates were all modified by adding a serine β-lactamase inhibitor (sBLI) at a fixed concentration of 16 μg/mL. Additionally, the zinc chelator was added at various fixed concentrations. […]

[2] = tested on: K. pneumoniae K66-45 (NDM-1); experiment: MIC determination of meropenem with zinc chelator at varying zinc concentrations in the medium (Example 31); assay type: cell-based, Klebsiella pneumoniae
Method: An experiment was conducted to determine the Minimal Inhibitory Concentration (MIC) of meropenem (MEM) in combination with the zinc chelator according to Example 26 of WO 2018/033719 at varying concentrations of zinc in the medium. The medium was a Mueller Hinton broth from Thermo Fischer. The zinc content was measured as 5.6 μM using ICP-MS. The concentration of zinc in the plasma of healthy animals has been determined to be close to this value. In infectious tissue, the zinc concentration is below the limit of detection (see, for example Bilinskaya et al., Am. Soc. For Microbiology (2020), 58, pages 1-8). Zinc sulfate was then added to this broth to obtain three further concentrations: 15.6 μM, 25.6 μM and 35.6 μM of zinc, keeping all other parameters constant.
As a model bacterial strain for this experiment, the MIC of MEM vs. K. pneumoniae K66-45 (NDM-1) was then determined in broth containing the four concentrations of zinc following the protocol given in Example 1. The EUCAST MIC value for MEM alone (EUCAST: standardization organization for MIC values of antibiotics) is 4-8 μM, meaning that if a bacterial strain is inhibited at lower concentrations than the MIC value, the bacterial strain is sensitive(S) to MEM. Correspondingly, if the bacterial strain is not inhibited at MIC or lower, the strain is resistant (R). If the inhibition is within the MIC range 4-8 μM, the resistance is intermediate (I).

SMILES: CN(C[C@H](O)[C@@H](O)[C@H](O)[C@H](O)CO)C(=O)c1ccc(CN(Cc2ccccn2)Cc2ccccn2)nc1 [zinc chelator]
- Synergy with the zinc chelator observed at concentration ([1]; Example 27, with PIP and AVI 16 μg/mL): 16 µg/mL
- Synergy with the zinc chelator observed at concentration ([1]; Example 28, with PIP and TAZ 16 μg/mL): 16 µg/mL and 8 µg/mL
- sensitivity of the strain ([2]; printed: "at 4-8 μM when used tested at a concentration 4 μM", with MEM): sensitive
- effect against the bacterial strain ([2]; zinc chelator 16 μM with MEM, highest concentration of zinc (35.6 μM)): ineffective
